Here are results for seven molecules from patent publication US20250312440A1, “CHEMICAL SCREEN OF MODULATORS FOR VACCINE ADJUVANTS” (THE UNIVERSITY OF CHICAGO, priority 2022, published 2025).

In one experiment the test system is human THP-1 monocytes. Kind of experiment: Cytokine level screening in THP-1 cells (AlphaLISA/AlphaPlex, modulator + agonist). It is filed as cell-based. The method, then:
THP-1 cells were seeded at 50,000 cells per well in 45 μL of biotin-free RPMI+5% HI-FBS in clear 384 well plates. Following 24h incubation, 50 nL of 10 mM modulator libraries were added by Janus G3 via pintool to experimental wells (cols 3-22) for a final concentration of 10 μM. After 1 hour, 5 μL of agonist was added via a MultiDrop Combi liquid handler (col 3-23). The following day, 5 μL of supernatant was transferred to white low volume ProxiPlates. 10 μL of a prepared acceptor bead (10 μg/mL final conc), biotinylated antibody (1 nM final conc) mixture was added via liquid handler to the cell supernatant. After 1 hr incubation at RT, 5 μL of donor beads (40 μg/mL final conc) were added in the dark. After an additional 1 hr incubation, plates were read on a plate reader with AlphaPlex filters for europium (615 nm) and terbium (545 nm) emission. A separate plate was run each day containing a standard curve of known analyte for interpolation purposes.
Cytokines and chemokines are a broad category of secreted proteins important for adjuvants in regulating adaptive immunity (23). However, excessive production of cytokines by adjuvants can result in direct tissue damage and are correlated with vaccine tolerability (24, 25). To validate the findings of the primary screening results and to explore the impact on downstream immune outcomes, the inventors measured levels of six cytokines and chemokines involved in inflammation and adaptive responses (IL-12p40, IP-10, IL-1b, CCL4, TNF-α, and IFN-b, Table 4). The inventors measured cytokine expression through AlphaLISA, an assay well-suited to high throughput due to its large dynamic range, in situ measurement, and broad range of cytokines. It has been previously used to investigate small molecule biological inhibitors (26-28).
Cell supernatants were collected and cytokines were measured in three duplex measurements (FIG. 11A). Similarly, the inventors optimized standard curve ranges, crosstalk correction factors, incubation times and other factors of the secondary screen (FIGS. 11B-11D). As in the inventors' primary screen, modulators enhance or inhibit cytokine production among all six cytokines and for each agonist independently (FIGS. 4A-4G, FIG. 11E). The distributions within cytokines vary based on the dynamic range and Z-factor obtained for each cytokine and agonist studied (Table 5). High throughput screening utilizes Z-factors as a proxy for statistical reliability of an assay, due to the dynamic range of the positive controls and the inherent cytokines secreted for each agonist, a Z-factor score greater than zero was not obtained for certain agonists/[…] combinations. Since each agonist produced differing levels of cytokine that were sometimes at the limits of standard curve, amending this assay to a high throughout nature was challenging. […] Since the inventors measured fold-change and reduce dimensionality further in analysis, this approach was adequate to compare compounds within the inventors' dataset for down-selection.
After considering categorical and ranked scoring systems, the inventors decided the best representation of modulator performance would need to preserve cytokine changes but do so by normalizing for each cytokine's and agonist's dynamic range (37). Because of the differences in dynamic range of all the inventors' six cytokines, the inventors sought to normalize the data to ensure no distribution would bias the inventors' results. Thus, the inventors transformed each cytokine's distributions to a range from −1 to 1 (FIG. 5A). Unlike the previous screen, the inventors considered increases and decreases in cytokine responses separately when selecting molecules for vaccination studies. In the vaccine score, a promising candidate would need to produce minimal pro-inflammatory cytokines while increasing IFN-b and chemokine production (24, 25). Additionally, the inventors might prioritize the importance of one cytokine's modulation over another. […]
(In general: Bead proximity is the source of the signal in Alpha formats.)

In a further experiment the test system is IL-6 and TNF-α. The note with it: with CPG adjuvant; cited from earlier work.
The next experiment relates to TNF-α. Kind of experiment: Plasma cytokine analysis 1 hr after OVA vaccination with agonist + modulator. The note with it: 1 hr after vaccination, CpG 50 μg + modulator 1.5 μmol. It is filed as in vivo, mice. The procedure: All animal procedures were performed under a protocol approved by the University of Chicago Institutional Animal Care and Use Committee (IACUC). 6-to-8-week-old C57/B6 female mice were purchased from the Jackson laboratory. All vaccinations were administered intramuscularly in the hind leg. Blood was collected from the submandibular vein at time points indicated.
Mice were lightly anesthetized with isoflurane and injected intramuscularly in the hind leg with an injection volume of 50 μL containing antigen, adjuvant, and a DMSO/AddaVax combination. Antigen dose was as follows: OVA (100 μg)). Agonists doses were as follows: Flagellin, 10 μg; R848, 50 μg; CpG, 50 μg. Modulators were added at 1.5 μmol.
Blood was collected from mice at specified time points in 0.2 mL of heparin-coated collection tubes (VWR Scientific). […] Plasma was analyzed using Bio-Legend's LegendPlex™ Mouse Inflammation Cytokine Panel (13-Plex) according to the manufacturer's protocol. Samples were analyzed using an ACEA NovoCyte Flow Cytometer. Data were analyzed using LEGENDplex™ Data Analysis Software Suite and GraphPad Prism.
The inventors used the vaccine score to select modulators to test in a murine in vivo model. […] The inventors monitored inflammatory cytokine levels one hour following initial injections and monitored antigen specific antibody levels at the indicated timepoints post-boost (FIG. 6A). […]

Setting [1] is: THP-1, 10 μM modulator, across agonists.
The mark [2] stands for this setting: THP-1, 10 μM modulator, across receptors studied.

With `Cc1ccc(NC(=O)c2ccc(CN3CC[C@H](N(C)C)C3)c(C(F)(F)F)c2)cc1Nc1nccc(-c2cncnc2)n1` [Bafetinib], the “difference in enhancement of IP-10 and IFN-b between agonists” value in the experiment on human THP-1 monocytes (Pam3, Pam2 vs cGAMP) is given as ~2 orders of magnitude. Take `CS[C@@]1(C(=O)Nc2ccc3[nH]nc(-c4ccc(OC(C)C)nc4)c3c2)CCN(CC(=O)N2CC=C(c3ccc(-c4ncn(C)n4)cc3)CC2)C1` [MK-8353]: in the experiment with human THP-1 monocytes (setting [1]), the “IFN-b production, modulator+agonist vs agonist alone” value is listed as “ablates”; the “IL-12 production, modulator+agonist vs agonist alone” value is reported as “ablates”; the “IP-10 production, modulator+agonist vs agonist alone” value is given as “ablates”. Moreover, in the experiment with human THP-1 monocytes (setting [2]), the IL-1b enhancement result is “up to 100 fold” and the TNF-α enhancement result was “up to 100 fold”. For `CN(C)c1ccc2c(c1)Sc1cc(N(C)C)ccc1N2.CS(=O)(=O)O.CS(=O)(=O)O` [TRx0237(LMTX) mesylate], the “IFN-b production, modulator+agonist vs agonist alone” value in the experiment on human THP-1 monocytes (setting [1]) is given as “enhance IFN-b secretion across all agonists studied”. Moreover, the “TNF-α enhancement using cGAMP” value with human THP-1 monocytes (THP-1, 10 μM modulator, cGAMP) is listed as “up to 36 fold”. Turning to `COc1cc(CNC(=O)CCCC/C=C/C(C)C)ccc1O` [capsaicin], the “pro-inflammatory systemic IL-6 and TNF-α levels” value in the experiment with IL-6 and TNF-α is on record as “reduce”. As for `CN1CCN(C2CCN(C(=O)Nc3cc(Oc4ccc(NC(=O)C5(C(=O)Nc6ccc(F)cc6)CC5)c(F)c4)ccn3)CC2)CC1` [compound 2, Golvatinib], in the experiment on TNF-α, the “systemic TNF-α for CpG” value was ~0. As for `O=c1cc(-c2cccc3c2Sc2ccccc2S3)oc(N2CCOCC2)c1` [compound 3], the “systemic TNF-α for CpG” value in the experiment on TNF-α is ~0. `C=CCc1ccc(O)c(-c2ccc(O)c(CC=C)c2)c1` [honokiol]: the “pro-inflammatory systemic IL-6 and TNF-α levels” value in the experiment with IL-6 and TNF-α is recorded as “reduce”.
